Experimental findings from ChEMBL document CHEMBL3352500, “Identification and characterization of an anti-pseudomonal dichlorocarbazol derivative displaying anti-biofilm activity” (Bioorg Med Chem Lett, 2014) are described below.

In brackets after ≈: the same amount, converted by molar mass. Activity calls are given as the source filed them. A value given as a limit tells only on which side of the number the result lay.

For data set [1], the system named is Pseudomonas aeruginosa. Nature of the data set: Antibacterial activity against Pseudomonas aeruginosa after 24 hrs by two-fold broth microdilution method. It counts as functional. In general terms: In broth dilution the organism is exposed to a series of concentrations in liquid medium.
Data set [2] concerns Staphylococcus aureus. Nature of the data set: Antibacterial activity against Staphylococcus aureus SH1000. It counts as functional.
The subject of data set [3] is Escherichia coli. Briefly: Antibacterial activity against Escherichia coli TG1. It counts as functional.
In data set [4] the test system is Porphyromonas gingivalis. Nature of the data set: Antibacterial activity against Porphyromonas gingivalis ATCC 33277. It counts as functional.
Data set [5] deals with Staphylococcus epidermidis. Briefly: Antibacterial activity against Staphylococcus epidermidis RP62A. It counts as functional.
In data set [6] the test system is Staphylococcus epidermidis. Nature of the data set: Antibiofilm activity against Staphylococcus epidermidis RP62A after 72 hrs. It counts as functional.
The test system of data set [7] is Escherichia coli. Nature of the data set: Antibiofilm activity against Escherichia coli TG1 after 24 hrs. It counts as functional.
For data set [8], the system named is Pseudomonas aeruginosa. Nature of the data set: Antibacterial activity against Pseudomonas aeruginosa YM64 expressing mexAB-oprM::FRT/mexXY::FRT/mexCD-oprJ::FRT/mexEF-oprN::FRT deletion mutant. It counts as functional.
Data set [9] relates to Pseudomonas aeruginosa. Nature of the data set: Antibacterial activity against ticarcillin-resistant Pseudomonas aeruginosa clinical isolate PA129. It counts as functional.
For data set [10], the system named is Pseudomonas aeruginosa. Briefly: Antibiofilm activity against Pseudomonas aeruginosa on smooth titanium disc at 3.7 ug/ml after 19 hrs by confocal laser scanning microscopy. It counts as functional, organism-based.
The subject of data set [11] is Pseudomonas aeruginosa. Briefly: Antibiofilm activity against Pseudomonas aeruginosa on smooth titanium disc assessed as dead cells in biofilm at 12 ug/ml after 19 hrs by confocal laser scanning microscopy relative to control. It counts as functional, organism-based.
Data set [12] has as its system Pseudomonas aeruginosa. Briefly: Antibacterial activity against Pseudomonas aeruginosa clinical isolate PA1256. It counts as functional.
For data set [13], the system named is Pseudomonas aeruginosa. Nature of the data set: Antibacterial activity against ticarcillin/piperacillin-resistant Pseudomonas aeruginosa clinical isolate PA346. It counts as functional.
For data set [14], the system named is Pseudomonas aeruginosa. Briefly: Antibiofilm activity against Pseudomonas aeruginosa PA14 after 24 hrs. It counts as functional.
Data set [15] concerns Pseudomonas aeruginosa. Briefly: Bactericidal activity against Pseudomonas aeruginosa. It counts as functional.
The test system of data set [16] is Pseudomonas aeruginosa. Briefly: Antibacterial activity against ticarcillin/piperacillin/ceftazidime/cefepime-resistant Pseudomonas aeruginosa clinical isolate PA1255. It counts as functional.
Data set [17] concerns Pseudomonas aeruginosa. Briefly: Antibacterial activity against ticarcillin/cefepime-resistant Pseudomonas aeruginosa clinical isolate PA1250. It counts as functional.
For data set [18], the system named is Pseudomonas aeruginosa. Briefly: Antibiofilm activity against Pseudomonas aeruginosa assessed as decrease of culturable cells in biofilm at >= 4.63 ug/ml after 24 hrs by plate counting method. It counts as functional, organism-based.
Data set [19] relates to Pseudomonas aeruginosa. Nature of the data set: Antibacterial activity against Pseudomonas aeruginosa PA14. It counts as functional.
Data set [20] is described as follows: Cytotoxicity against human mesenchymal stem cells assessed as cell viability at 4.63 ug/ml after 2 hrs. It counts as cell-based. The settings on record: read-out: Activity.
The subject of data set [21] is Pseudomonas aeruginosa. Briefly: Antibacterial activity against wild-type Pseudomonas aeruginosa YM. It counts as functional.
The subject of data set [22] is Pseudomonas aeruginosa. Nature of the data set: Antibacterial activity against ticarcillin-resistant Pseudomonas aeruginosa clinical isolate PA424. It counts as functional.
The test system of data set [23] is Pseudomonas aeruginosa. Nature of the data set: Antibacterial activity against ticarcillin-resistant Pseudomonas aeruginosa clinical isolate PA53. It counts as functional.
Data set [24] can be described thus: Cytotoxicity against human endothelial cells assessed as effect on tube formation at 4.63 ug/ml after 4 hrs. The settings on record: endothelial cell. It counts as cell-based.
Data set [25] can be described thus: Cytotoxicity against human osteoblasts assessed as cell viability at 4.63 ug/ml after 2 hrs. It counts as cell-based, Osteoblast. The settings on record: read-out: Activity.
Data set [26] relates to Pseudomonas aeruginosa. Nature of the data set: Antibiofilm activity against Pseudomonas aeruginosa on smooth titanium disc assessed as reduction in total area fraction at 1 to 12 ug/ml after 19 hrs by confocal laser scanning microscopy. It counts as functional.
Data set [27] has as its system Pseudomonas aeruginosa. Briefly: Antibacterial activity against ticarcillin-resistant Pseudomonas aeruginosa clinical isolate PA1271. It counts as functional.
Data set [28] relates to Porphyromonas gingivalis. Nature of the data set: Antibiofilm activity against Porphyromonas gingivalis ATCC 33277 after 72 hrs. It counts as functional.
The subject of data set [29] is Pseudomonas aeruginosa. Briefly: Antibacterial activity against ticarcillin-resistant Pseudomonas aeruginosa clinical isolate PA08. It counts as functional.
A short description of data set [30]: Cytotoxicity against human endothelial cells at 4.63 ug/ml after 2 hrs. It counts as cell-based. The following applies: endothelial cell.
For data set [31], the system named is Staphylococcus aureus. Briefly: Antibiofilm activity against Staphylococcus aureus SH1000 after 24 hrs. It counts as functional.
For data set [32], the system named is Pseudomonas aeruginosa. Nature of the data set: Antibacterial activity against Pseudomonas aeruginosa clinical isolate PA1270. It counts as functional.

In the data set with Pseudomonas aeruginosa [1], `OC(CN1CCCCC1)Cn1c2ccc(Cl)cc2c2cc(Cl)ccc21` (stereo not drawn) returned a minimum inhibitory concentration (MIC) of 74 µg/mL (≈ 196 µM).
For GENTAMICIN, the lowest concentration to inhibit growth against Staphylococcus aureus [2] (MIC) was 12.5 µg/mL.
Take `OCCn1c2ccccc2c2cc(Cl)ccc21`: the minimal inhibitory concentration (MIC) in the data set with Pseudomonas aeruginosa [1] amounted to 18.5 µg/mL (≈ 75.3 µM).
The compound `CC1COc2c(N3CCN(C)CC3)c(F)cc3c(=O)c(C(=O)O)cn1c23` (stereo not drawn) [OFLOXACIN] showed an MIC against Escherichia coli [3] of 0.1 µg/mL (≈ 0.277 µM).
`CN(C)CC(O)Cn1c2ccc(Br)cc2c2cc(Br)ccc21` (stereo not drawn) gave an MIC against Pseudomonas aeruginosa [1] of 18.5 µg/mL (≈ 43.4 µM).
As for `N=C(NCCCCCCNC(=N)NC(=N)Nc1ccc(Cl)cc1)NC(=N)Nc1ccc(Cl)cc1` [CHLORHEXIDINE], the lowest concentration to inhibit growth against Porphyromonas gingivalis [4] (MIC) was 4 µg/mL (≈ 7.91 µM).
`O=C(O)c1cn(C2CC2)c2cc(N3CCNCC3)c(F)cc2c1=O` [CIPROFLOXACIN] gave a minimum inhibitory concentration (MIC) in data set [5] of 1.56 µg/mL (≈ 4.71 µM).
In the case of `CCC(C)NCC(O)Cn1c2ccc(Cl)cc2c2cc(Cl)ccc21` (stereo not drawn), the MBIC was found to be 9.25 µg/mL in [6], 18.5 µg/mL in the data set on Pseudomonas aeruginosa [14], 5.11 µg/mL in the data set with Porphyromonas gingivalis [28] and 9.25 µg/mL in the data set with Staphylococcus aureus [31]. In addition, the MIC in the data set with Porphyromonas gingivalis [4] came to 4.63 µg/mL (≈ 12.7 µM); against Pseudomonas aeruginosa [8], 4.63 µg/mL (≈ 12.7 µM); with Pseudomonas aeruginosa [9], 18.5 µg/mL (≈ 50.6 µM); against Pseudomonas aeruginosa [12] it was 9.25 µg/mL (≈ 25.3 µM); with Pseudomonas aeruginosa [13], 18.5 µg/mL (≈ 50.6 µM); in the data set with Pseudomonas aeruginosa [16] it was 18.5 µg/mL (≈ 50.6 µM). For the same compound, the MIC with Pseudomonas aeruginosa [17] is 18.5 µg/mL (≈ 50.6 µM); in the data set on Staphylococcus aureus [2] it was 9.25 µg/mL (≈ 25.3 µM); against Pseudomonas aeruginosa [19] it was 18.5 µg/mL (≈ 50.6 µM); against Pseudomonas aeruginosa [21] it was 18.5 µg/mL (≈ 50.6 µM); in the data set on Pseudomonas aeruginosa [22], 18.5 µg/mL (≈ 50.6 µM); in the data set with Pseudomonas aeruginosa [23] it was 18.5 µg/mL (≈ 50.6 µM). Moreover, the minimum inhibitory concentration (MIC) in [5] turned out to be 9.25 µg/mL (≈ 25.3 µM); against Pseudomonas aeruginosa [27], 18.5 µg/mL (≈ 50.6 µM); in the data set on Pseudomonas aeruginosa [1], 18.5 µg/mL (≈ 50.6 µM); in the data set with Pseudomonas aeruginosa [29], 18.5 µg/mL (≈ 50.6 µM); against Escherichia coli [3], 4.63 µg/mL (≈ 12.7 µM); in the data set on Pseudomonas aeruginosa [32], 18.5 µg/mL (≈ 50.6 µM). This compound returned an MBIC90 in the data set on Escherichia coli [7] of 2.22 µg/mL. Further, the outcome in the data set with Pseudomonas aeruginosa [10], in the data set with Pseudomonas aeruginosa [11] and with Pseudomonas aeruginosa [18] was Active. In the data set on Pseudomonas aeruginosa [15], this compound came in with a minimum bactericidal concentration (MBC) of 18.5 µg/mL (≈ 50.6 µM). Besides, the viability at 2 h, 4.63 ug/ml in data set [20] and in [25] was above 80% in each case. The Activity result in data set [24] is on record as “Non-toxic”; in [30], “Toxic”. Besides, the “inhibition (INH)” value in the data set on Pseudomonas aeruginosa [26] is given as 50%.
Take `CCN(CC)CC(O)Cn1c2ccc(Cl)cc2c2cc(Cl)ccc21` (stereo not drawn): in the data set on Pseudomonas aeruginosa [1], the MIC stood at 37 µg/mL (≈ 101 µM).
Take `OC(CNCC1CCCO1)Cn1c2ccc(Cl)cc2c2cc(Cl)ccc21` (stereo not drawn): the MIC with Pseudomonas aeruginosa [1] amounted to 18.5 µg/mL (≈ 47 µM).
In the data set with Pseudomonas aeruginosa [1], `OCCN(CCO)CC(O)Cn1c2ccc(Cl)cc2c2cc(Cl)ccc21` (stereo not drawn) had a minimum inhibitory concentration (MIC) above 74 µg/mL.
Still for that read-out and setting: for `CN(CCO)CC(O)Cn1c2ccc(Cl)cc2c2cc(Cl)ccc21` (stereo not drawn) the value was 18.5 µg/mL (≈ 50.4 µM).

By MIC is commonly meant the smallest concentration in the dilution series that meets the test's criterion for growth inhibition. As usually defined, the MBC is the smallest concentration meeting the test's criterion for killing.
